Measured values as given in US20100298141A1, “SUBSTITUTED PYRIDINE N-OXIDE HERBICIDES” (E. I. DU PONT DE NEMOURS AND COMPANY, priority 2007, published 2010).

Key:
[1] = system: kochia; assay: Test C pre-/postemergence test; format: in vivo, Kochia scoparia
Summary of the method: (§1)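 Test chemicals were formulated with surfactant in a non-phytotoxic solvent and sprayed both on freshly planted seeds (preemergence) and on 1- to 4-leaf plants of 2–18 cm (postemergence). Flooded-paddy pots received compound directly into 3 cm of standing water, maintained for the test.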

[2] = system: crabgrass; assay: Test C pre-/postemergence test; format: in vivo, Digitaria sanguinalis
Summary of the method: as §1

[3] = system: lambsquarters; assay: Test C pre-/postemergence test; format: in vivo, Chenopodium album
Summary of the method: as §1

[4] = system: barnyardgrass; assay: Test A pre-/postemergence greenhouse test; format: in vivo, Echinochloa crus-galli; settings: for Barnyardgrass plant response rating: 0 to 100 scale
Summary of the method: (§2)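 Greenhouse herbicide screen, pre- and postemergence in parallel. Soil: loam plus sand. Formulation: non-phytotoxic solvent mix with surfactant. Postemergence stage: one to two leaves, 2–10 cm height. Evaluation: visual injury, compared with untreated controls, about 10 days after treatment.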

[5] = system: downy brome; assay: Test C pre-/postemergence test; format: in vivo, Bromus tectorum
Summary of the method: as §1

[6] = system: cocklebur; assay: Test C pre-/postemergence test; format: in vivo, Xanthium strumarium
Summary of the method: as §1

[7] = system: common ragweed; assay: Test C pre-/postemergence test; format: in vivo, Ambrosia elation
Summary of the method: as §1

[8] = system: eastern black nightshade; assay: Test C pre-/postemergence test; format: in vivo, Solanum ptycanthum
From the text: Seeds of plant species selected from blackgrass (Alopecurus myosuroides), downy brome (Bromus tectorum), green foxtail (Setaria viridis), Italian ryegrass (Lolium multiflorum), wheat (Triticum aestivum), wild oat (Avena fatua), catchweed bedstraw (Galium aparine), Russian thistle (Salsola kali), […] (Cynodon dactylon), Surinam grass (Brachiaria decumbens), cocklebur (Xanthium strumarium), corn (Zea mays), crabgrass (Digitaria sanguinalis), woolly cupgrass (Eriochloa villosa), giant foxtail (Setaria faberii), Goosegrass (Eleusin indica), johnsongrass (Sorghum halepense), kochia (Kochia scoparia), lambsquarters (Chenopodium album), morningglory (Ipomoea coccinea), eastern black nightshade (Solanum ptycanthum), yellow nutsedge (Cyperus esculentus), pigweed (Amaranthus retroflexus), common ragweed (Ambrosia elation), soybean (Glycine max), common (oilseed) sunflower (Helianthus annuus), and velvetleaf (Abutilon theophrasti) were planted and treated preemergence with test chemicals formulated in a non-phytotoxic solvent mixture which included a surfactant. At the same time, plants selected from these crop and weed species and also winter barley (Hordeum vulgare), canarygrass (Phalaris minor), and chickweed (Stellaria media) were treated with postemergence applications of some of the test chemicals formulated in the same manner. Plants ranged in height from 2 to 18 cm (1- to 4-leaf stage) for postemergence treatments. […] At time of treatment, test pots were flooded to 3 cm above the soil surface, treated by application of test compounds directly to the paddy water, and then maintained at that water depth for the duration of the test. […] A dash (-) response means no test result.

[9] = system: rice; assay: Test C flooded paddy test; format: in vivo, Oryza sativa; settings: Flood
Summary of the method: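 Compound was added to standing water 3 cm above soil, flood maintained, and plants held in a greenhouse before visual scoring against controls at 13 to 15 days.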

[10] = system: Surinam grass; assay: Test C pre-/postemergence test; format: in vivo, Brachiaria decumbens; settings: for Surinam Grass plant response rating: preemergence, scale 0 (no effect) to 100 (complete control)
Summary of the method: as §1

[11] = system: giant foxtail; assay: Test C pre-/postemergence test; format: in vivo, Setaria faberii
Summary of the method: as §1

[12] = system: redroot pigweed; assay: Test A pre-/postemergence greenhouse test; format: in vivo, Amaranthus retroflexus; settings: for Pigweed plant response rating: 0 to 100 scale
Summary of the method: as §2

[13] = system: johnsongrass; assay: Test C pre-/postemergence test; format: in vivo, Sorghum halepense
Summary of the method: as §1

[14] = system: wild oat; assay: Test C pre-/postemergence test; format: in vivo, Avena fatua
Summary of the method: as §1

[15] = system: green foxtail; assay: Test C pre-/postemergence test; format: in vivo, Setaria viridis
Summary of the method: as §1

[16] = system: velvetleaf; assay: Test A pre-/postemergence greenhouse test; format: in vivo, Abutilon theophrasti; settings: for Velvetleaf plant response rating: 0 to 100 scale
Summary of the method: as §2

[17] = 31 g ai/ha, Preemergence, scale 0 to 100
[18] = 62 g ai/ha, preemergence, scale 0 (no effect) to 100 (complete control)
[19] = preemergence, 125 g ai/ha, scale 0 (no effect) to 100 (complete control)
[20] = Postemergence, 125 g ai/ha, 0 is no effect, 100 is complete control
[21] = Postemergence, 500 g ai/ha, 0 is no effect, 100 is complete control
[22] = Preemergence, 125 g ai/ha, 0 no effect, 100 complete control
[23] = Preemergence, 500 g ai/ha, 0 to 100 scale where 0 is no effect and 100 is complete control

## Cn1nc(C(F)(F)F)c(CS(=O)(=O)c2cccc[n+]2[O-])c1OC(F)F [Compound 4]
[1]; [17]
  Kochia plant response rating: 0
[1]; [18]
  Kochia plant response rating: 100
[1]; Preemergence, 250 g ai/ha
  Plant response rating (0 to 100), Kochia: 100
[1]; [19]
  Kochia plant response rating: 100
[2]; [17]
  Crabgrass, Large plant response rating: 98
[2]; [18]
  Crabgrass, Large plant response rating: 100
[2]; Preemergence, 250 g ai/ha
  Plant response rating (0 to 100), Crabgrass, Large: 100
[2]; [19]
  Crabgrass, Large plant response rating: 100
[3]; [17]
  Lambsquarters plant response rating: 0
[3]; [18]
  Lambsquarters plant response rating: 50
[3]; Preemergence, 250 g ai/ha
  Plant response rating (0 to 100), Lambsquarters: 100
[3]; [19]
  Lambsquarters plant response rating: 80
[4]; [20]
  Barnyardgrass plant response rating: 70
[4]; [21]
  Barnyardgrass plant response rating: 80
[4]; [22]
  Barnyardgrass plant response rating: 70
[4]; [23]
  Plant response rating, Barnyardgrass: 100
[5]; [17]
  Bromegrass, Downy plant response rating: 0
[5]; [18]
  Bromegrass, Downy plant response rating: 0
[5]; Preemergence, 250 g ai/ha
  Plant response rating (0 to 100), Bromegrass, Downy: 70
[5]; [19]
  Bromegrass, Downy plant response rating: 0
[6]; [17]
  Cocklebur plant response rating: 0
[6]; [18]
  Cocklebur plant response rating: 0
[6]; Preemergence, 250 g ai/ha
  Plant response rating (0 to 100), Cocklebur: 0
[6]; [19]
  Cocklebur plant response rating: 0
[7]; [17]
  Ragweed plant response rating: 70
[7]; [18]
  Ragweed plant response rating: 100
[7]; Preemergence, 250 g ai/ha
  Plant response rating (0 to 100), Ragweed: 100
[7]; [19]
  Ragweed plant response rating: 100
[8]; [17]
  Nightshade plant response rating: 90
[8]; [18]
  Nightshade plant response rating: 100
[8]; Preemergence, 250 g ai/ha
  Plant response rating (0 to 100), Nightshade: 100
[8]; [19]
  Nightshade plant response rating: 100
[9]; 31 g ai/ha, scale 0 to 100 (0 no effect, 100 complete control)
  Plant response rating, Rice: 10
[9]; 62 g ai/ha, scale 0 to 100, 0 no effect, 100 complete control, 13 to 15 days
  Plant response rating, Rice: 30
[9]; 125 g ai/ha, scale 0 to 100, 0 no effect, 100 complete control, 13 to 15 days
  Plant response rating, Rice: 70
[9]; 250 g ai/ha, scale 0 to 100 (0 no effect, 100 complete control)
  Plant response rating, Rice: 80
[10]; 62 g ai/ha
  Surinam Grass plant response rating: 100
[10]; Preemergence, 250 g ai/ha
  Plant response rating (0 to 100), Surinam Grass: 100
[10]; 125 g ai/ha
  Surinam Grass plant response rating: 100
[11]; [17]
  Foxtail, Giant plant response rating: 90
[11]; [18]
  Foxtail, Giant plant response rating: 100
[11]; Preemergence, 250 g ai/ha
  Plant response rating (0 to 100), Foxtail, Giant: 100
[11]; [19]
  Foxtail, Giant plant response rating: 100
[12]; [20]
  Pigweed plant response rating: 70
[12]; [21]
  Pigweed plant response rating: 80
[12]; [22]
  Pigweed plant response rating: 100
[12]; [23]
  Plant response rating, Pigweed: 100
[13]; [17]
  Johnsongrass plant response rating: 95
[13]; [18]
  Johnsongrass plant response rating: 95
[13]; Preemergence, 250 g ai/ha
  Plant response rating (0 to 100), Johnsongrass: 100
[13]; [19]
  Johnsongrass plant response rating: 100
[14]; [17]
  Oat, Wild plant response rating: 10
[14]; [18]
  Oat, Wild plant response rating: 50
[14]; Preemergence, 250 g ai/ha
  Plant response rating (0 to 100), Oat, Wild: 70
[14]; [19]
  Oat, Wild plant response rating: 65
[15]; [17]
  Foxtail, Green plant response rating: 100
[15]; [18]
  Foxtail, Green plant response rating: 100
[15]; Preemergence, 250 g ai/ha
  Plant response rating (0 to 100), Foxtail, Green: 100
[15]; [19]
  Foxtail, Green plant response rating: 100
[16]; [20]
  Velvetleaf plant response rating: 50
[16]; [21]
  Velvetleaf plant response rating: 80
[16]; [22]
  Velvetleaf plant response rating: 50
[16]; [23]
  Plant response rating, Velvetleaf: 90
